The values that follow come from ChEMBL document CHEMBL1146844, “Probing a water channel near the A-ring of receptor-bound 1 alpha,25-dihydroxyvitamin D3 with selected 2 alpha-substituted analogues” (J Med Chem, 2006).

The source made the active and inactive calls. The rule behind the calls is not given here.

In the experiment the test system is HL-60. Put plainly: Induction of HL60 cell differentiation in correlation with affinity to human VDR. Type of experiment: functional, cell-based.
In the case of `C=C1/C(=C\C=C2/CCC[C@]3(C)[C@@H]([C@H](C)CCCC(C)(C)O)CC[C@@H]23)C[C@@H](O)[C@H](C)[C@@H]1O`, the outcome was Active.

As for `C=C1/C(=C\C=C2/CCC[C@]3(C)[C@@H]([C@H](C)CCCC(C)(C)O)CC[C@@H]23)C[C@H](O)[C@@H](OCCC)[C@H]1O`, the outcome was inactive.

Consider `C=C1/C(=C\C=C2/CCC[C@]3(C)[C@@H]([C@H](C)CCCC(C)(C)O)CC[C@@H]23)C[C@@H](O)[C@H](CCC)[C@@H]1O`, for which the outcome was Active.

As to `C=C1/C(=C\C=C2/CCC[C@]3(C)[C@@H]([C@H](C)CCCC(C)(C)O)CC[C@@H]23)C[C@@H](O)[C@H](OCCCO)[C@@H]1O`, the outcome was inactive.

Turning to `C=C1/C(=C\C=C2/CCC[C@]3(C)[C@@H]([C@H](C)CCCC(C)(C)O)CC[C@@H]23)C[C@@H](O)[C@H](CCCO)[C@@H]1O`, the outcome was Active.
